Molecular target: human 11βHSD1 enzyme (Homo sapiens (Human), UniProt P28845)
Assay: biochemical
Conditions: read-out: % inhibition of human 11-βHSD
Experimental: The evaluation of compounds described herein was carried out using a baculovirus expressed N terminal 6-His tagged full length human 11βHSD1 enzyme(*1). […] Inhibitors of 11βHSD1 reduce the conversion of cortisone to cortisol, which is identified by an increase in signal, in the above assay.
Compounds to be tested were dissolved in dimethyl sulphoxide (DMSO) to 10 mM and diluted further in assay buffer containing 1% DMSO to 10 fold the final assay concentration. Diluted compounds were then plated into black 384 well plates (Matrix, Hudson N.H., USA).
The assay plates were incubated for 25 minutes at 37° C. after which time the reaction was stopped by the addition of 10 μl of 0.5 mM glycerrhetinic acid plus conjugated cortisol (XL665 or D2). 10 μl of anti-cortisol Cryptate was then added and the plates sealed and incubated for 6 hours at room temperature.

Sequence of human 11βHSD1 enzyme (P28845 whole entry): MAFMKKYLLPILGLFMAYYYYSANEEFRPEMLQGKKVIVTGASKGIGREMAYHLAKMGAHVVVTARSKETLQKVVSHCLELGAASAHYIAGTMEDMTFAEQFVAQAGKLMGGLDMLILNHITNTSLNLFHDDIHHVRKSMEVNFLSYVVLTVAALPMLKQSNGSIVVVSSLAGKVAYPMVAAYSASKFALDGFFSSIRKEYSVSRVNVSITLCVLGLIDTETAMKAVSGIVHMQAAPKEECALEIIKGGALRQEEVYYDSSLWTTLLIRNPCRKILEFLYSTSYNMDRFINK

Structure (SMILES) | inhibition at 30 µM [%]
CCCSc1nc(N[C@H]2C3CC4CC2C[C@@](C(=O)O)(C4)C3)ccc1C(=O)NC1CCCCC1 [Example 10, (3R,5S)-4-[[5-(cyclohexylcarbamoyl)-6-propylsulfanyl-pyridin-2-yl]amino]adamantane-1-carboxylic acid] | 88
O=C(O)C[C@@H]1CCCN(c2ccc(C(=O)NC3CCCCC3)c(SCCc3cnccn3)n2)C1 [compound 132, 2-[(3S)-1-[5-(cyclohexyl-carbamoyl)-6-(2-pyrazin-2-ylethylsulfanyl)pyridin-2-yl]-3-piperidyl] acetic acid] | 98
CCS(=O)(=O)N1CCN(c2nc(N3CCC[C@@H](CC(=O)O)C3)ccc2C(=O)NC2CCCCC2)CC1 [compound 148, 2-[(3S)-1-[5-(cyclohexyl-carbamoyl)-6-(4-ethylsulfonyl-piperazin-1-yl)pyridin-2-yl]-3-piperidyl]acetic acid] | 56
CCCSc1nc(N2CCC[C@@H](CC(=O)O)C2)ccc1C(=O)N[C@H]1C2CC3CC1C[C@@](O)(C3)C2 [Example 83] | 87
CCCSc1nc(N2CCCC(C(C)(C)C(=O)O)C2)ccc1C(=O)N[C@H]1C2CC3CC1C[C@](O)(C3)C2 (stereo partly drawn) [Example 92, 2-[1-[5-[((2r,5s)-5-hydroxy-2-adamantyl)carbamoyl]-6-propylsulfanyl-pyridin-2-yl]-3-piperidyl]-2-methyl-propanoic acid] | 89
CCCSc1nc(N(C)[C@H]2CC[C@H](C(=O)O)CC2)ccc1C(=O)NC1CCCCC1 [Example 11, 4-[[5-(cyclohexylcarbamoyl)-6-propylsulfanyl-pyridin-2-yl]-methyl-amino]cyclohexane-1-carboxylic acid] | 83
O=C(O)C[C@H]1CCCN(c2ccc(C(=O)NC3CCCCC3)c(SC3CCCC3)n2)C1 [Example 55, 2-[(3R)-1-[5-(cyclohexylcarbamoyl)-6-cyclopentylsulfanyl-pyridin-2-yl]-3-piperidyl]acetic acid] | 89
CCCCc1nc(N2CC3C(C2)C3C(=O)O)ccc1C(=O)NC1C2CC3CC(C2)CC1C3 (stereo not drawn) [Example 163, 3-[5-(2-adamantylcarbamoyl)-6-butyl-pyridin-2-yl]-3-azabicyclo[3.1.0]hexane-6-carboxylic acid] | 93
CCCSc1nc(NCC2CCC(C(=O)O)CC2)ccc1C(=O)N[C@H]1C2CC3CC1C[C@](O)(C3)C2 (stereo partly drawn) [Example 80, 4-[[[5-[((2r,5s)-5-hydroxy-2-adamantyl)carbamoyl]-6-propylsulfanyl-pyridin-2-yl]amino]methyl]cyclohexane-1-carboxylic acid] | 94
CCCSc1nc(N[C@H]2C3CC4CC2C[C@](C(=O)O)(C4)C3)ccc1C(=O)NC1CCCCC1 [Example 9, (3R,5S)-4-[[5-(cyclohexylcarbamoyl)-6-propylsulfanyl-pyridin-2-yl]amino]adamantane-1-carboxylic acid] | 92
CCCSc1nc(Sc2ccccc2C(=O)O)ccc1C(=O)NC1CCCCC1 [Example 24, 2-[5-(cyclohexylcarbamoyl)-6-propylsulfanyl-pyridin-2-yl]sulfanylbenzoic acid] | 77
CCCSc1nc(Oc2ccc(CCC(=O)O)cc2)ccc1C(=O)NC1CCCCC1 [Example 18, 3-[4-[5-(cyclohexylcarbamoyl)-6-propylsulfanyl-pyridin-2-yl]oxyphenyl]propanoic acid] | 81
O=C(O)C[C@@H]1CCCN(c2ccc(C(=O)NC3CCCCC3)c(N3CCc4ccccc4C3)n2)C1 [compound 144, 2-[(3S)-1-[5-(cyclohexylcarbamoyl)-6-(3,4-dihydro-1H-isoquinolin-2-yl)pyridin-2-yl]-3-piperidyl]acetic acid] | 93
O=C(O)C[C@@H]1CCCN(c2ccc(C(=O)NC3CCCCC3)c(N3CCC(c4ccc(F)cc4)C3)n2)C1 (stereo partly drawn) [compound 143, 2-[(3S)-1-[5-(cyclohexylcarbamoyl)-6-[3-(4-fluorophenyl)pyrrolidin-1-yl]pyridin-2-yl]-3-piperidyl]acetic acid] | 95
O=C(O)CO[C@H]1CCN(c2ccc(C(=O)NC3C4CC5CC(C4)CC3C5)c(SC3CCCCC3)n2)C1 (stereo partly drawn) [Example 71, 2-[(3S)-l-[5-(2-adamantylcarbamoyl)-6-cyclohexylsulfanyl-pyridin-2-yl]pyrrolidin-3-yl]oxyacetic acid] | 92
CCCSc1nc(Oc2cccc(CC(=O)O)c2)ccc1C(=O)NC1CCCCC1 [Example 23, 2-[3-[5-(cyclohexylcarbamoyl)-6-propylsulfanyl-pyridin-2-yl]oxyphenyl]acetic acid] | 78
CCCSc1nc(N2CCC[C@H](CC(=O)O)C2)ccc1C(=O)N(C)C1CCCCC1 [Example 168, 2-[(3R)-1-[5-(Cyclohexyl-methyl-carbamoyl)-6-propylsulfanyl-pyridin-2-yl]-3-piperidyl]acetic acid] | 108
O=C(O)C[C@@H]1CCCN(c2ccc(C(=O)N[C@H]3C4CC5CC3C[C@](OC(F)F)(C5)C4)c(SC3CCCCC3)n2)C1 [Example 176, 2-[(3S)-1-[6-Cyclohexylsulfanyl-5-[[(2r,5s)-5-(difluoromethoxy)-2-adamantyl]carbamoyl]pyridin-2-yl]-3-piperidyl]acetic acid] | 92
CCCSc1nc(N2CCN(CC(=O)O)CC2)ccc1C(=O)NC1CCCCC1 [Example 8, 2-[4-[5-(cyclohexylcarbamoyl)-6-propylsulfanyl-pyridin-2-yl]piperazin-1-yl]acetic acid] | 78
CCCSc1nc(N2CCC[C@@H](CC(=O)O)C2)ccc1C(=O)N(C)[C@H]1C2CC3CC1C[C@](OC)(C3)C2 [Example 170, [(3S)-1-[5-[((2r,5s)-5-Methoxyadamantan-2-yl)(methyl)carbamoyl]-6-(propylthio)pyridin-2-yl]piperidin-3-yl]acetic acid] | 92
CSc1nc(N2CC[C@H](CC(=O)O)C2)ccc1C(=O)NC1C2CC3CC(C2)CC1C3 (stereo partly drawn) [Example 76, 2-[(3R)-1-[5-(2-adamantylcarbamoyl)-6-methylsulfanyl-pyridin-2-yl]pyrrolidin-3-yl]acetic acid] | 87
CCCSc1nc(N2CCC[C@@H](CC(=O)O)C2)ccc1C(=O)N(C(C)C)C1CCCCC1 [Example 124, 2-[(3S)-1-[5-(cyclohexyl-propan-2-yl-carbamoyl)-6-propylsulfanyl-pyridin-2-yl]-3-piperidyl]acetic acid] | 92
CC(C)CCSc1nc(N2C[C@@H]3[C@H](C2)[C@H]3C(=O)O)ccc1C(=O)N[C@H]1C2CC3CC1C[C@@](O)(C3)C2 [Example 106, (1R,5S)-3-[5-[((2r,5s)-5-hydroxy-2-adamantyl)carbamoyl]-6-(3-methylbutylsulfanyl)pyridin-2-yl]-3-azabicyclo[3.1.0]hexane-6-carboxylic acid] | 95
CCCSc1nc(N2CCC[C@@H](CC(=O)O)C2)ccc1C(=O)N[C@H]1C2CC3CC1C[C@@](S(C)(=O)=O)(C3)C2 [Example 126b, 2-[(3S)-1-[5-[((2r,5s)-5-methylsulfonyl-2-adamantyl)carbamoyl]-6-propylsulfanyl-pyridin-2-yl]-3-piperidyl]acetic acid] | 99
